Drawing on the supplement of paper PMC11061612, this text covers Bliss excess for seven molecules.

Common to all, as to test: Bliss excess, mean over the matrix (fraction); higher = more synergy
Test [1] has as its system HuH-7 (Hepatocellular Carcinoma). Put shortly:
(§1)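 After 24 hours at 37°C and 5% CO2 in 1536-well plates, cells in DMEM/F12 or RPMI plus 10% FBS received two-drug dose matrices for 72 hours. Viability came from CellTiter-Glo 2.0 luminescence and was scaled as inhibition, anchored at 0 by vehicle wells and at 1 by blank wells. Combination Emax is taken as the second-highest inhibition in the matrix, and Bliss excess as the observed combination effect less EA + EB − EA·EB, with EA and EB the single-agent effects.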

The test system of test [2] is EW-11 (Ewing's Sarcoma). Put shortly:
as §1

Test [3] concerns ALL-PO (B-Lymphoblastic Leukemia). An outline of the steps:
as §1

Test [4] relates to NCI-H2052 (Mesothelioma). An outline of the steps: as §1
Test [5] has as its system HH (T-Cell Non-Hodgkin's Lymphoma). An outline of the steps: as §1
Test [6] deals with NCI-H2722 (Mesothelioma). An outline of the steps:
as §1

For test [7], the system named is CAL-72 (Osteosarcoma). An outline of the steps:
as §1

The test system of test [8] is BE2-M17 (Neuroblastoma). Put shortly:
as §1

Test [9] relates to LCLC-97TM1 (Non-Small Cell Lung Carcinoma). An outline of the steps:
as §1

Test [10] has as its system MPP-89 (Mesothelioma). Put shortly:
as §1

The subject of test [11] is HuCCT1 (Biliary Tract Carcinoma). An outline of the steps:
as §1

In test [12] the test system is NCI-H524 (Small Cell Lung Carcinoma). An outline of the steps: as §1
The subject of test [13] is HeLa (Cervical Carcinoma). An outline of the steps:
as §1

For test [14], the system named is BPH-1 (Non-Cancerous). Put shortly:
as §1

The test system of test [15] is SNU-449 (Hepatocellular Carcinoma). An outline of the steps: as §1
The test system of test [16] is LS-123 (Colorectal Carcinoma). An outline of the steps: as §1
The subject of test [17] is GAMG (Glioblastoma). Put shortly: as §1
In test [18] the test system is OV-56 (Ovarian Carcinoma). Put shortly:
as §1

The test system of test [19] is BE-13 (T-Lymphoblastic Leukemia). Put shortly: as §1
In test [20] the test system is L-428 (Hodgkin's Lymphoma). Put shortly:
as §1

Regarding `CN(C)CCCOc1ccc(-c2ccc3ncc4c(c3c2)n(C2CCOCC2)c(=O)n4C)cn1` [AZD0156] + C=CCn1c(=O)c2cnc(Nc3ccc(N4CCN(C)CC4)cc3)nc2n1-c1cccc(C(C)(C)O)n1 [AZD1775] (first compound max 1 µM, partner max 1 µM), the Bliss excess in [1] is -0.0497; in [2], -0.0426; in test [3] it was 0.0128; in test [4] it was -0.0554; in [5], -0.0689; in test [6], -0.0363. Also, the Bliss excess in test [7] was -0.0492; in test [8], -0.0429; in test [9] it was -0.0179; in [10], -0.0513; in test [11], -0.0382; in [12], -0.0204. Further, the Bliss excess in test [13] is -0.0364; in test [14], 0.0475; in test [15] it was -0.0635; in test [16], -0.0229; in test [17] it was -0.0429; in test [18], -0.0459. In addition, the Bliss excess in test [19] is -0.0329; in test [20] it was 0.0106.
As for `CN(C)CCCOc1ccc(-c2ccc3ncc4c(c3c2)n(C2CCOCC2)c(=O)n4C)cn1` [AZD0156] + CCN(CCO)CCCOc1ccc2c(Nc3cc(CC(=O)Nc4cccc(F)c4)[nH]n3)ncnc2c1 [AZD2811] (first compound max 1 µM, 7x7, partner max 1 µM), the Bliss excess in test [1] is -0.0381; in test [2], -0.084; in test [3] it was -0.024; in test [4], -0.0123; in test [5], -0.0412; in test [6], -0.0226. Also, the Bliss excess in test [7] was -0.0213; in test [8], 0.0535; in [9] it was 0.0765; in test [10] it was -0.0402; in test [11], -0.0274; in [12], -0.0083. Also, the Bliss excess in [13] was -0.0136; in [14], 0.0625; in test [15], -0.0656; in test [16], -0.0409; in test [17], -0.0244; in [18], -0.0176. Besides, the Bliss excess in test [19] was -0.0908; in test [20], 0.0314.
For `CN(C)CCCOc1ccc(-c2ccc3ncc4c(c3c2)n(C2CCOCC2)c(=O)n4C)cn1` [AZD0156] + C[C@@H]1COCCN1C2=NC(=NC(=C2)C3(CC3)[S@](=N)(=O)C)C4=C5C=CNC5=NC=C4 [AZD6738] (first compound max 1 µM, 7x7, partner max 10 µM), the Bliss excess in test [1] was 0.0196; in test [2], -0.112; in [3], 0.0402; in [4], -0.0317; in test [5], 0.0175; in test [6] it was -0.0384. In addition, the Bliss excess in [7] is 0.111; in test [8], 0.0914; in test [9] it was -0.0039; in test [10], 0.0041; in [11], 0.0297; in [12], 0.0229. For the same molecule, the Bliss excess is -0.0217 in test [13]; -0.0092 in test [14]; -0.0662 in test [15]; -0.0313 in test [16]; -0.0485 in test [17]; 0.0361 in [18]. The Bliss excess in test [19] was -0.0619; in test [20] it was 0.0132.
For `CN(C)CCCOc1ccc(-c2ccc3ncc4c(c3c2)n(C2CCOCC2)c(=O)n4C)cn1` [AZD0156] + O=C(c1cc(Cc2n[nH]c(=O)c3ccccc23)ccc1F)N1CCN(C(=O)C2CC2)CC1 [Olaparib] (first compound max 3 µM, partner max 3 µM), the Bliss excess in [1] was -0.0107; in test [2] it was 0.0995; in test [3], 0.0594; in test [4] it was -0.0064; in test [5] it was -0.0513; in test [6], -0.017. Besides, the Bliss excess in test [7] is 0.0475; in test [8] it was 0.0515; in test [9], -0.0124; in test [10] it was -0.0547; in [11], -0.0012; in [12], 0.179. The Bliss excess in test [13] was -0.0057; in test [14], 0.158; in test [15] it was -0.0344; in [16] it was -0.0346; in test [17] it was 0.0515; in test [18], -0.0449. The Bliss excess in test [19] was 0.0894; in test [20] it was -0.0116.
For the molecule `C=CCn1c(=O)c2cnc(Nc3ccc(N4CCN(C)CC4)cc3)nc2n1-c1cccc(C(C)(C)O)n1` [AZD1775] + C1CN(CCC1(C(=O)N[C@@H](CCO)C2=CC=C(C=C2)Cl)N)C3=NC=NC4=C3C=CN4 [Capivasertib] (first compound max 3 µM, partner max 3 µM), the Bliss excess in [1] was 0.0263; in test [2], 0.0203; in test [3] it was -0.0134; in [4], -0.0369; in test [5], -0.144; in test [6] it was -0.0603. For the same molecule, the Bliss excess in [7] was 0.0259; in [8], -0.0406; in [9], -0.0545; in [10], -0.0704; in [12] it was -0.0075; in test [13], -0.0168. Also, the Bliss excess in [14] was -0.0371; in [15] it was 0.0122; in test [16] it was -0.0341; in [17] it was 0.0181; in [18], -0.0263; in test [19], -0.0508. Besides, the Bliss excess in test [20] is -0.0138.
In the case of `C=CCn1c(=O)c2cnc(Nc3ccc(N4CCN(C)CC4)cc3)nc2n1-c1cccc(C(C)(C)O)n1` [AZD1775] + C[C@@H]1COCCN1C2=NC(=NC(=C2)C3(CC3)[S@](=N)(=O)C)C4=C5C=CNC5=NC=C4 [AZD6738] (first compound max 1 µM, partner max 10 µM), the Bliss excess in test [1] was 0.0027; in test [2], -0.0282; in test [3], 0.0624; in test [4], -0.0197; in test [5], 0.0379; in [6], -0.0029. The Bliss excess is -0.0277 in test [7]; 0.103 in test [8]; -0.0323 in test [9]; 0.0013 in [10]; -0.0205 in [11]; 0.051 in test [12]. The Bliss excess in [13] is 0.0883; in test [14], 0.0614; in test [15] it was -0.0061; in test [16], -0.0519; in test [17], -0.0218; in [18], 0.0141. Also, the Bliss excess in test [19] worked out at 0.0159; in [20] it was 0.0246.
In the case of `CN(CCO)CC[C@H](CSc1ccccc1)Nc1ccc(S(=O)(=O)NC(=O)c2ccc(N3CCC([C@@H](O)c4ccccc4-c4ccc(Cl)cc4)CC3)cc2)cc1S(=O)(=O)C(F)(F)F` [AZD4320] + C1CN(CCC1(C(=O)N[C@@H](CCO)C2=CC=C(C=C2)Cl)N)C3=NC=NC4=C3C=CN4 [Capivasertib] (first compound max 1 µM, 7x7, partner max 3 µM), the Bliss excess in [1] was -0.0402; in test [2] it was 0.0405; in test [3] it was 0.0177; in test [4], -0.0743; in test [5] it was 0.0193; in test [6], -0.081. The Bliss excess in test [7] was -0.0184; in test [8], 0.006; in test [9] it was -0.0048; in test [10], -0.0234; in test [11] it was -0.0536; in test [12] it was -0.0517. Besides, the Bliss excess is -0.0377 in test [13]; -0.0496 in [14]; -0.0742 in [15]; -0.0661 in test [17]; -0.0243 in test [18]; -0.0175 in test [19]. In [20], the Bliss excess is -0.0146.
